Reference: article PMC10669118 (2023)
Each block holds one compound with its values, some of them ahead of it.

Assays:
[1] = system: STAT (HEX) (DNA, G4) GGGCTGGGGATGGGGAGGGGG; test: microscale thermophoresis; settings: 10 mM KCl, 20 mM sodium phosphate; pH 7.4, 22 °C, DMSO and Tween 20; said to be submicromolar
[2] = system: cKit1 (HEX) (DNA, G4) GGGAGGGCGCTGGGAGGAGGG; test: microscale thermophoresis; settings: 10 mM KCl, 20 mM sodium phosphate; pH 7.4, 22 °C, DMSO and Tween 20; said to be submicromolar
[3] = system: 22CTA (DNA, G4) AGGGCTAGGGCTAGGGCTAGGG; test: FRET melting; settings: 10 mM KCl, 20 mM sodium phosphate, pH 7.4, 20 µM compound
[4] = system: 22AG (DNA, G4) AGGGTTAGGGTTAGGGTTAGGG; test: FRET melting; settings: 10 mM KCl, 20 mM sodium phosphate, pH 7.4, 20 µM compound; for binding: 1 µM DNA (legend of Figure 3 prints them reversed)
[5] = system: BclT (DNA, G4) GGGGGCCGTGGGGTGTGAGCTGGGG; test: FRET melting; settings: 10 mM KCl, 20 mM sodium phosphate; pH 7.4; 20 µM compound, 1 µM DNA
[6] = system: STAT (DNA, G4) GGGCTGGGGATGGGGAGGGGG; test: FRET melting; settings: 10 mM KCl, 20 mM sodium phosphate; pH 7.4; 20 µM compound, 1 µM DNA
[7] = system: Hair (DNA, hairpin) GTATAGCTATTTTTATAGCTATA; test: FRET melting; settings: 10 mM KCl, 20 mM sodium phosphate; pH 7.4; 20 µM compound, 1 µM DNA
[8] = system: VEGF (DNA, G4) GGGAGGGTTGGGGTGGG; test: FRET melting; settings: 25 mM LiCl, 5 mM sodium phosphate; pH 7.4; 20 µM compound, 1 µM DNA
[9] = system: cMyc (DNA, G4) TGAGGGTGGGTAGGGTGGGTAA; test: FRET melting; settings: 10 mM KCl, 20 mM sodium phosphate; pH 7.4; 20 µM compound, 1 µM DNA
[10] = system: cKit1 (DNA, G4) GGGAGGGCGCTGGGAGGAGGG; test: FRET melting; settings: 10 mM KCl, 20 mM sodium phosphate; pH 7.4; 20 µM compound, 1 µM DNA
[11] = system: Ct1 (DNA, G4) GGTGACAGGGGTATGGGGAGGGG; test: FRET melting; settings: 10 mM KCl, 20 mM sodium phosphate; pH 7.4; 20 µM compound, 1 µM DNA

Structure (SMILES): CN(C)CCNC(=O)COc1ccc2c(c1)nc1ccn(CC(=O)NCCN(C)C)c(=O)n12
Kd [1]: 0.4 µM

Structure (SMILES): NCCNC(=O)Cn1ccc2nc3cc(O)ccc3n2c1=O
ΔTm [5]: 0 ± 2 °C
ΔTm [6]: 1 ± 2 °C
ΔTm ([3]; 1 µM DNA): 1 ± 2 °C
ΔTm [7]: -1 ± 2 °C
ΔTm [8]: 1 ± 2 °C
ΔTm ([4]; 1 µM DNA): 1 ± 2 °C
ΔTm [9]: 1 ± 2 °C
ΔTm [10]: 3 ± 2 °C
ΔTm [11]: 2 ± 2 °C

Results, then the compound that gave them:

Kd [2]: 0.5 µM
binding ([3]; 1 µM DNA (legend of Figure 3 prints them reversed)): yes
binding [4]: yes
Structure (SMILES): NCCNC(=O)COc1cc2nc3ccn(CC(=O)NCCN)c(=O)n3c2c2ccccc12

Kd [2]: 0.6 µM
Kd [1]: 0.5 µM
Structure (SMILES): NCCNC(=O)Cn1ccc2nc3cc(O)c4ccccc4c3n2c1=O

binding [4]: yes
Structure (SMILES): N=C(N)NCCNC(=O)COc1cc2nc3ccn(CC(=O)NCCNC(=N)N)c(=O)n3c2c2ccccc12
